The subject of this test is Human Umbilical Vein Endothelial cells. Description: VEGF-stimulated HUVEC proliferation assay. The note with it: 72 h, CyQuant, read-out: inhibited VEGF-stimulated HUVEC proliferation at a level. It counts as cell-based. The procedure:
Human Umbilical Vein Endothelial cells are purchased from Clonetics, Inc., as cryopreserved cells harvested from a pool of donors. These cells, at passage 1, are thawed and expanded in EBM-2 complete medium, until passage 2 or 3. The cells are trypsinized, washed in DMEM+10% FBS+antibiotics, and spun at 1000 rpm for 10 min. Prior to centrifugation of the cells, a small amount is collected for a cell count. After centrifugation, the medium is discarded, and the cells are resuspended in the appropriate volume of DMEM+10% FBS+antibiotics to achieve a concentration of 3×10^5 cells/mL. Another cell count is performed to confirm the cell concentration. The cells are diluted to 3×10^4 cells/mL in DMEM+10% FBS+antibiotics, and 100 μL of cells are added to a 96-well plate. The cells are incubated at 37° C. for 22 h.
Prior to the completion of the incubation period, compound dilutions are prepared. Five-point, five-fold serial dilutions are prepared in DMSO, at concentrations 400-fold greater than the final concentrations desired. 2.5 μL of each compound dilution are diluted further in a total of 1 mL DMEM+10% FBS+antibiotics (400× dilution). Medium containing 0.25% DMSO is also prepared for the 0 μM compound sample. At the 22-hour timepoint, the medium is removed from the cells, and 100 μL of each compound dilution is added. The cells are incubated at 37° C. for 2-3 h.
During the compound pre-incubation period, the growth factors are diluted to the appropriate concentrations. Solutions of DMEM+10% FBS+antibiotics, containing either VEGF or bFGF at the following concentrations: 50, 10, 2, 0.4, 0.08, and 0 ng/mL are prepared. For the compound-treated cells, solutions of VEGF at 550 ng/mL or bFGF at 220 ng/mL for 50 ng/mL or 20 ng/mL final concentrations, respectively, are prepared since 10 μL of each will be added to the cells (110 μL final volume). At the appropriate time after adding the compounds, the growth factors are added. VEGF is added to one set of plates, while bFGF is added to another set of plates. For the growth factor control curves, the media on wells B4-G6 of plates 1 and 2 are replaced with media containing VEGF or bFGF at the varying concentrations (50-0 ng/mL). The cells are incubated at 37° C. for an additional 72 h.
At the completion of the 72 h incubation period, the medium is removed, and the cells are washed twice with PBS. After the second wash with PBS, the plates are tapped gently to remove excess PBS, and the cells are placed at −70° C. for at least 30 min. The cells are thawed and analyzed using the CyQuant fluorescent dye (Molecular Probes C-7026), following the manufacturer's recommendations. The plates are read on a Victor/Wallac 1420 workstation at 485 nm/530 nm (excitation/emission). Raw data are collected and analyzed using a 4-parameter fit equation in XLFit. IC50 values are then determined.
Regarding `CC(C)(C)OC(=O)N1Cc2cc(NC(=O)c3cccnc3Nc3cnc4ccncc4c3)ccc2C(C)(C)C1` [Example 36, 4,4-Dimethyl-7-{[2-([1,6]naphthyridin-3-ylamino)-pyridine-3-carbonyl]-amino}-3,4-dihydro-1H-isoquinoline-2-carboxylic acid tert butyl ester], the IC50 is below 1000 nM. To `CC1(C)CNc2cc(NC(=O)c3cccnc3Nc3cccc4cnccc34)ccc21` [Example 70, N-(3,3-Dimethyl-2,3-dihydro-1H-indol-6-yl)-2-(isoquinolin-5-ylamino)-nicotinamide] belongs below 1000 nM; to `Cc1cc(NC(=O)c2cccnc2Nc2ccc3ccncc3c2)ccc1N1CCCC1` [Example 62, 2-(isoquinolin-7-ylamino)-N-(3-methyl-4-(pyrrolidin-1-yl)phenyl)nicotinamide], below 1000 nM. To `Cc1cc(NC(=O)c2cccnc2Nc2ccc3ccncc3c2)ccc1C(F)(F)C(F)(F)F` [Example 48, 2-(Isoquinolin-7-ylamino)-N-(3-methyl-4-pentafluoroethyl-phenyl)-nicotinamide] belongs below 1000 nM; to `O=C(Nc1ccc(N2CCC2)nc1)c1cccnc1Nc1ccc2ccncc2c1` [Example 45, N-(6-Azetidin-1-yl-pyridin-3-yl)-2-(isoquinolin-7-ylamino)-nicotinamide], below 1000 nM. To `CC1(C)CNCc2cc(NC(=O)c3cccnc3Nc3cccc4cnccc34)ccc21` [Example 69, N-(4,4-Dimethyl-1,2,3,4-tetrahydro-isoquinolin-7-yl)-2-(isoquinolin-5-ylamino)-nicotinamide] belongs below 1000 nM. As for `CC(C)(C)c1ccc(NC(=O)c2ccccc2Nc2ccc3ccncc3n2)cc1` [Example 76, N-(4-tert-Butyl-phenyl)-2-([1,7]naphthyridin-2-ylamino)-benzamide], the IC50 is below 1000 nM.

As to `CC1(C)CNCc2cc(NC(=O)c3cccnc3Nc3ccc4ncncc4c3)ccc21` [Example 51, N-(4,4-Dimethyl-1,2,3,4-tetrahydro-isoquinolin-7-yl)-2-(quinazolin-6-ylamino)-nicotinamide], the IC50 is below 1000 nM. For the compound `CCC(C)(C)c1ccc(NC(=O)c2cccnc2Nc2ccc3ccncc3c2)cc1` [Example 46, N-(4-(1,1-Dimethyl-propyl)-phenyl)-2-(isoquinolin-7-ylamino)-nicotinamide], the IC50 is below 1000 nM. `CNc1ncnc2ccc(Nc3ncccc3C(=O)Nc3ccc4c(c3)CN(C(C)=O)CC4(C)C)cc12` [Example 16, N-(2-Acetyl-4,4-dimethyl-1,2,3,4-tetrahydro-isoquinolin-7-yl)-2-(4-methylamino-quinazolin-6-ylamino)-nicotinamide]: the IC50 is below 1000 nM.

Take `CC(C)(C)c1ccc(NC(=O)c2cccnc2Nc2ccc3ccncc3c2)cn1` [Example 42, N-(6-tert-Butyl-pyridin-3-yl)-2-(isoquinolin-7-ylamino)-nicotinamide]: the IC50 is below 1000 nM. For the compound `Cc1nc2cc(NC(=O)c3cccnc3Nc3ccc4ccncc4c3)ccc2s1` [Example 39, 2-(isoquinolin-7-ylamino)-N-(2-methyl-1,3-benzothiazol-5-yl)nicotinamide], the IC50 is below 1000 nM.

In the case of `CC1(C)CCNc2cc(NC(=O)c3cccnc3Nc3ccc4ncncc4c3)ccc21` [Example 57, N-(4,4-Dimethyl-1,2,3,4-tetrahydro-quinolin-7-yl)-2-(quinazolin-6-ylamino)-nicotinamide], the IC50 is below 1000 nM.

Turning to `O=C(Nc1cc(OCC2CCCO2)cc(C(F)(F)F)c1)c1cccnc1Nc1ccc2ccncc2c1` (centres unmarked) [Example 40], the IC50 is below 1000 nM. As to `O=C(Nc1ccc(OC(F)(F)F)cc1)c1cccnc1Nc1ccc2ccncc2c1` [Example 61, 2-(isoquinolin-7-ylamino)-N-(4-(trifluoromethoxy)phenyl)nicotinamide], the IC50 is below 1000 nM. For the compound `CC1(C)CNc2cc(NC(=O)c3cccnc3Nc3ccc4ccncc4c3)ccc21` [Example 32, N-(3,3-Dimethyl-2,3-dihydro-1H-indol-6-yl)-2-(isoquinolin-7-ylamino)-nicotinamide], the IC50 was below 1000 nM.

With `O=C(Nc1ccc(C(O)(C(F)(F)F)C(F)(F)F)cc1)c1cccnc1Nc1ccc2ccncc2c1` [Example 43, 2-(Isoquinolin-7-ylamino)-N-[4-(2,2,2-trifluoro-1-hydroxy-1-trifluoromethyl-ethyl)-phenyl]-nicotinamide], the IC50 is below 1000 nM. To `CN1CCCC1COc1cc(NC(=O)c2cccnc2Nc2cccc3cnccc23)cc(C(F)(F)F)c1` (centres unmarked) [Example 68, 2-(Isoquinolin-5-ylamino)-N-[3-(1-methyl-pyrrolidin-2-ylmethoxy)-5-trifluoromethyl-phenyl]-nicotinamide] belongs below 1000 nM; to `CC(C)(C)c1ccc(NC(=O)c2cccnc2Nc2ccc3nc(N)nc(N)c3c2)cc1` [Example 66, 2-(2,4-diaminoquinazolin-6-ylamino)-N-(4-tert-butylphenyl)nicotinamide], below 1000 nM; to `O=C(Nc1ccc(C(F)(F)C(F)(F)F)cc1)c1cccnc1Nc1ccc2ccncc2c1` [Example 11, 2-(Isoquinolin-7-ylamino)-N-(4-pentafluoroethyl-phenyl)-nicotinamide], below 1000 nM. In the case of `CC(C)(C)c1ccc(NC(=O)c2cccnc2Nc2cccc3ncccc23)cc1` [Example 72, N-(4-(1,1-dimethylethyl)phenyl)-2-(5-quinolinylamino)-3-pyridinecarboxamide] it was below 1000 nM.

With `Cc1cc(NC(=O)c2cccnc2Nc2ccc3ccncc3c2)ccc1C(C)C` [Example 49, N-(4-Isopropyl-3-methyl-phenyl)-2-(isoquinolin-7-ylamino)-nicotinamide], the IC50 was below 1000 nM.

With `CC1(C)CNCc2cc(NC(=O)c3ccccc3Nc3ccc4ccncc4n3)ccc21` [Example 77, N-(4,4-Dimethyl-1,2,3,4-tetrahydro-isoquinolin-7-yl)-2-([1,7]naphthyridin-2-ylamino)-benzamide], the IC50 was below 1000 nM.

For the compound `O=C1CSc2ccc(NC(=O)c3cccnc3Nc3ccc4ccncc4c3)cc2N1` [Example 55, 2-(isoquinolin-7-ylamino)-N-(3-oxo-3,4-dihydro-2H-1,4-benzothiazin-6-yl)nicotinamide], the IC50 is below 1000 nM. As for `O=C(Nc1ccc(N2CCC2)cn1)c1cccnc1Nc1ccc2ccncc2c1` [Example 47, N-(5-Azetidin-1-yl-pyridin-2-yl)-2-(isoquinolin-7-ylamino)-nicotinamide], the IC50 is below 1000 nM. To `CC1(C)CNCc2cc(NC(=O)c3cccnc3Nc3cnc4ccncc4c3)ccc21` [Example 37, N-(4,4-Dimethyl-1,2,3,4-tetrahydro-isoquinolin-7-yl)-2-([1,6]naphthyridin-3-ylamino)-nicotinamide] belongs below 1000 nM. To `CC(C)(C)c1ccc(NC(=O)c2cccnc2Nc2cnc3ccncc3c2)cc1` [Example 35, N-(4-tert-Butyl-phenyl)-2-([1,6]naphthyridin-3-ylamino)-nicotinamide] belongs below 1000 nM; to `CC(C)(C)c1cc(NC(=O)c2cccnc2Nc2cccc3cnccc23)on1` [Example 71, N-(3-tert-butylisoxazol-5-yl)-2-(isoquinolin-5-ylamino)nicotinamide], below 1000 nM; to `CC1(C)CC(=O)Nc2nc(NC(=O)c3cccnc3Nc3ccc4ncncc4c3)ccc21` [Example 59, N-(5,5-dimethyl-7-oxo-5,6,7,8-tetrahydro-1,8-naphthyridin-2-yl)-2-(quinazolin-6-ylamino)nicotinamide], below 1000 nM.

Regarding `CC(C)c1ccc(NC(=O)c2cccnc2Nc2ccc3ccncc3c2)cc1` [Example 44, N-(4-Isopropyl-phenyl)-2-(isoquinolin-7-ylamino)-nicotinamide], the IC50 was below 1000 nM. In the case of `CC(=O)N1CC(C)(C)c2ccc(NC(=O)c3cccnc3Nc3ccc4ccncc4c3)cc21` [Example 31, N-(1-Acetyl-3,3-dimethyl-2,3-dihydro-1H-indol-6-yl)-2-(isoquinolin-7-ylamino)-nicotinamide] it was below 1000 nM. To `COc1cc(NC(=O)c2cccnc2Nc2ccc3ccncc3c2)cc(C(F)(F)F)c1` [Example 33, 2-(Isoquinolin-7-ylamino)-N-(3-methoxy-5-trifluoromethyl-phenyl)-nicotinamide] belongs below 1000 nM.
